# Columns and labels:
# [1] = tested on: primary rat white adipocytes; experiment: FFA release triggered by adrenalin in primary white adipocytes; assay type: cell-based; details: with adrenalin
# From the text: To determine whether Sirt1 stimulates fat mobilization in bona fide adipocytes, we cultured primary rat white adipocytes and activated fat mobilization with the known β-adrenergic inducer adrenalin. […] In a converse experiment using these rat adipocytes, we addressed whether inhibition of Sirt1 would blunt the mobilization of fat by adrenalin. Addition of the known Sirt1 inhibitor nicotinamide 16 indeed reduced the release of FFA triggered by adrenalin. The above findings indicate that Sirt1 not only represses the differentiation program of adipocytes, but also activates the mobilization of fat in fully differentiated cells.
# Cell culture, retroviral infection and transfection. 3T3-L1, HEK293, 293T and Phoenix cells (ATCC, Rockville, Md.) were cultured in Dulbecco's modified Eagle's medium with 10% FCS, and antibiotics. Primary adipocytes from Sprague-Dawley rats were prepared as described previously 25. Transfections for luciferase assays were done as described using pSPORT6-PPAR-γ2, pGL3-PPRE26 and pcDNA3-Sirt1. Data were corrected for transfection efficiency.
# [2] = tested on: 3T3-L1 adipocytes; experiment: Free fatty acid (FFA) release in fully differentiated 3T3-L1 cells; assay type: cell-based, mouse
# Method: (§1) We fully differentiated 3T3-L1 cells and subsequently (12 days after induction) applied the Sirt1 activator resveratrol over a wide range of concentrations. […] To validate further these visual results, we measured triglyceride content and free fatty acid (FFA) release in these cells.
# Wild-type FVB male age-matched (12-16 weeks old) mice were used for the present studies. Sirt1+/+ and Sirt1+/− genotypes have been described previously 21. All mice were housed under controlled temperature (25±1° C.) and lighting conditions. Food provided was normal chow. All mice were cared for in accordance with the MIT animal care committee. Blood was collected from the retro-orbital sinus and kept on ice until centrifugation (1,500 g, 15 min at 4° C.), and the plasma was stored at −20° C. until analysis. All animals were killed by decapitation. WAT depots were collected, weighed and quickly frozen in liquid nitrogen and stored at −70° C. until further processing by immunoblotting. Non-esterified free fatty acids were determined by enzymatic assays (Wako Pure Chemical Industries).
# [3] = tested on: 3T3-L1 adipocytes; experiment: Triglyceride content in fully differentiated 3T3-L1 cells; assay type: cell-based, mouse; details: control cells
# Method: as §1
# (§2) To stimulate adipogenesis and accumulation of lipids in cells, medium was supplemented to confluent cells (day 0) with 2 μM insulin or 10^−7M rosiglitazone (Alexis Biochemicals), as stated in the text, 1 μM dexamethasone, and 0.25 mM isobuthylmethylxanthine (IBMX) for 2 days. The cells were then incubated with insulin or 10^-7 M rosiglitazone, changing the medium every second day. Fat accumulation was visualized by staining of lipids with Oil red O. Intracellular triglyceride levels were measured in cell lysates by an enzymatic method using a reagent kit from Boehringer Mannheim.
# [4] = tested on: UCP1; experiment: UCP1 expression in BAT cells; assay type: cell-based
# From the text: Further observations were made. A mouse genetically deficient for SIRT1 activity cannot regulate body temperature in the cold. The mouse appears unable to induce the UCP1 gene or related transcriptional programs. We used chromatin immunoprecipitations to characterize genes which may include regulatory sequences that are directly or indirectly bound by SIRT1. We discovered that, at least in brown fat cells, the UCP1 promoter is bound by SIRT1. SIRT1 responds to stress and activates UCP1 transcription. At least in part, the transcriptional activation is a result of the PGC1 co-factor, which is present in BAT cells, but absent in WAT cells, PGC1 modifies SIRT1 from a repressor to an activator. PGC1, SIRT1, and PPARγ are able to form a ternary complex which functions as a transcriptional activator. SIRT1 may have a similar function in other cells that express PGC1, e.g., muscle and liver cells. Moreover, resveratrol increases UCP1 expression in BAT cells.
# [5] = tested on: 3T3-L1 adipocytes; experiment: Fat content by staining in fully differentiated 3T3-L1 cells; assay type: cell-based, mouse
# Method: as §1, §2
# [6] = tested on: 3T3-L1 fibroblasts; experiment: 3T3-L1 adipogenesis / differentiation (Oil Red O staining); assay type: cell-based, mouse
# Method: The 3T3-L1 mouse fibroblasts used in this example, and in Examples 4-10 hereinafter, were prepared in accordance with standard protocol as follows. 3T3-L1 cells (ATCC CL-173, Rockville, Md.) were grown to confluence (day 0) in medium A (Dulbecco's modified Eagle's Medium with 10% fetal calf serum, 100 units/ml penicillin, and 100 μg/ml streptomycin). Confluent cell were incubated in medium A containing 2 μM insulin, 1 μM dexamethasone, and 0.25 mM isobuthyl methyl xanthine for two days. Thereafter, confluent fibroblasts were treated with insulin for five days and at the end of such treatment were in a condition for functional study. Adipogenesis was evaluated by analysis of the expression of adipocyte-specific markers and by staining of lipids with Oil Red O (Chawla & Lazar, 1994, Proc. Natl. Acad. Sci. USA 91, 1786-1790).
# (§3) 3T3-L1 fibroblasts were transformed through standard techniques with either a pBABE control vector (“control fibroblasts”) or a vector comprising pBABE-mSIRT1 cDNA (“mSIRT1 cDNA fibroblasts”). Western Blot analyses of SIRT1 expression by the control and mSIRT1 cDNA fibroblasts were performed using antibodies and actin control as in Example 1.
# (§4) 3T3-L1 fibroblasts were transformed with either a pSUPER control vector (“control fibroblasts”), a vector comprising pSUPER-mSIRT1 RNAi WT (SEQ ID NO: 24) (“mSIRT1 RNAi WT fibroblasts”), or pSUPER-mSIRT1 RNAiMUT (SEQ ID NO: 25), (“mSIRT1 RNAiMUT fibroblasts”). Western Blot analyses of SIRT1 expression by the control, mSIRT1 RNAi WT, and mSIRT1 RNAiMUT fibroblasts were performed using antibodies and actin controls as in Example 1.
# as §2, with “The cells were then incubated with insulin or 10^-7 M rosiglitazone, changing the medium every second day.” left out
# [7] = tested on: 3T3-L1 fibroblasts; experiment: Isoproterenol-induced lipolysis in 3T3-L1 (fatty acid concentration); assay type: cell-based, mouse; details: day 7, isoproterenol (10^−5M), four hours; controls 0.627 mM (pBABE) and 0.508 mM (pSUPER)
# Method: The amount of fat generated by adipocyte lipolysis should be proportional to the fat content of the adipocyte. In the experiment of this example, four samples of 3T3-L1 fibroblasts were prepared essentially as in Example 3 (except for the change in protocol noted below), and transformed as in Examples 4 and 5 with either pBABE control vector (“pBABE control fibroblasts”), pBABE-mSIRT1 cDNA (“mSIRT1 cDNA fibroblasts”), pSUPER control vector (“pSUPER control fibroblasts”), or pSUPER-mSIRT1 RNAi WT (SEQ ID NO: 24) (“mSIRT1 RNAi WT fibroblasts”).
# Fatty acid concentrations in each of the four samples were measured four hours later and the results of these measurements are shown in FIG. 1. Six wells were used for each of the four samples. Results from the different wells were averaged.
# [8] = tested on: SIRT1; experiment: SIRT1 expression in transformed 3T3-L1 fibroblasts (Western Blot); assay type: cell-based, mouse; details: for SIRT1 expression level versus control fibroblasts: Western Blot, actin control
# Method: Samples of inguinal, epididymal, and retroperitoneal WAT were taken from the mice and subjected to Western Blot analyses using actin as a control to determine if SIRT1 was expressed in each of the three samples. Protein samples were prepared from WAT adipocytes by lysis in RIPA buffer supplemented with protease inhibitors. Twenty micrograms of protein were resolved in 9% SDS-PAGE and transferred to nitrocellulose membranes. SIRT1 protein was probed with mSIRT1 antibody (Upstate Inc.) and detected by ECL (Amersham). An actin antibody (Santa Cruz) was used in the Western Blot as a control. Pronounced SIRT1 expression levels were detected in each of the three WAT samples.
# as §3, §4
# Retroviral infection was performed as described in Tontonoz et al. (1994) Cell 79:1147. Phoenix cells were transfected with either pBABE, pBABE-Sirt1, pSUPERretro (Oligoengine), pSUPERretro-Sirt1 RNAi (5′-GATGAAGTTGACCTCCTCA-3′, SEQ ID NO:24) or pSUPER-NCoR RNAi (5′-GCTGCATCCAAGGGCCATG-3′, SEQ ID NO:25) using Lipofectamine (Invitrogen). After 48 h of transfection, the medium containing retroviruses was collected, filtered, treated by polybrene (1 μg ml^−1) and transferred to 3T3-L1 target cells. Infected cells were selected with puromycin (2.5 μg ml^−1) for 7 days.
# [9] = tested on: C/EBPβ, C/EBPδ, C/EBPα, PPARγ, aP2; experiment: Adipogenesis transcription factor levels in 3T3-L1 (Western Blot, semi-quantitative RT-PCR); assay type: cell-based, mouse
# Method: 3T3-L1 fibroblasts were transformed through standard techniques with either a pBABE control vector (“control fibroblasts”) or a vector comprising pBABE-mSIRT1 cDNA (“mSIRT1 cDNA fibroblasts”) in accordance with Example 4. Protein and total RNA was extracted from the differentiated cells. Western Blot analyses of levels of the PPARγ and C/EBPα transcription factors present in the protein extracts from the control and mSIRT1 cDNA fibroblasts were performed using antibodies and actin control as in Example 1.
# Semi-quantitative RT-PCR analysis was also conducted to determine levels of the C/EBPβ, C/EBPδ, C/EBPα, PPARγ transcription factors and aP2 (PPARγ target gene) present in the protein and total RNA extracted from the control and mSIRT1 cDNA fibroblasts. In this analysis, GAPDH was used as an internal control for cDNA input in the PCR.
# 3T3-L1 fibroblasts were transformed through standard techniques with either a pSUPER control vector (“control fibroblasts”) or a vector comprising pSUPER-mSIRT1 RNAiWT ([…]) (“mSIRT1 RNAiWT fibroblasts”) in accordance with Example 5. Protein and total RNA was extracted from the differentiated cells. […]
# Semi-quantitative RT-PCR analysis was also conducted to determine levels of the C/EBPβ, C/EBPδ, C/EBPα, PPARγ, and aP2 (PPARγ target gene) present in the protein and total RNA extracted from the control and mSIRT1RNAiWT fibroblasts. […]
# [10] = tested on: 3T3-L1 cells; experiment: Mitotic divisions after induction (BrdU incorporation) in 3T3-L1; assay type: cell-based, mouse
# From the text: We evaluated whether the mammalian Sir2 orthologue, Sirt1, senses nutrient availability in WAT and mediates corresponding effects on fat accumulation. To probe whether Sirt1 may actually modulate adipogenesis, we used mouse 3T3-L1 fibroblasts as an in vitro model. Adipogenesis in these cells is promoted by the nuclear receptor PPAR-γ. Upon induction of adipogenesis by insulin, dexamethasone and isobutylmethylxanthine, we observed that Sirt1, protein levels increased and peaked at day 5 after hormonal stimulation. […] 3T3-L1 cells undergo one or two mitotic divisions after induction as a prelude to terminal differentiation.
# [11] = tested on: 3T3-L1 fibroblasts; experiment: Intracellular triglyceride levels in transformed 3T3-L1; assay type: cell-based, mouse; details: day 7, Folch extraction, six wells per condition
# Method: Fibroblast intracellular trigylceride (“TG”) levels should decrease upon inhibition of fibroblast differentiation resulting from overexpression of SIRT1. Consistent with Examples 4 and 5, it should be possible to measure in a quantitative manner the amount of intracellular triglycerides that can be observed by Oil Red O staining. To do so, 3T3-L1 fibroblasts were prepared as in Example 3 and transformed as in Examples 4 and 5 with either pBABE control vector (“pBABE control fibroblasts”), pBABE-mSIRT1 cDNA (“mSIRT1 cDNA fibroblasts”), pSUPER control vector (“pSUPER control fibroblasts”), or pSUPER-mSIRT1 RNAi WT (SEQ ID NO: 24) (“mSIRT1 RNAi WT fibroblasts”).
# At day 7, the cells were lysed in methanol and neutral lipids were extracted by the Folch method and resuspended in isopropanol. Triglyceride levels were measured by calorimetric methods using a commercial kit (Trig/GB #450032, Roche Diagnostics, Indianapolis, Ind.). Six wells per condition were analyzed.
compound,measurement,setting,value
NC(=O)c1cccnc1 [nicotinamide],release of FFA triggered by adrenalin,[1],reduced
"Oc1ccc(/C=C/c2cc(O)cc(O)c2)cc1 [resveratrol, 3,5,4′-trihydroxy-tans-stilbene]",release of FFA,[2]; Sirt1 knockdown cells,but not in the Sirt1 knockdown cells
same,release of FFA,[2]; control cells,stimulated
same,triglyceride content,[3],reduced
same,UCP1 expression,[4],increases
same,release of FFA triggered by adrenalin,[1],greatly stimulated
same,fat content after staining,[5]; cells in which Sirt1 levels were knocked down,no drug-mediated fat reduction
same,fat content after staining,"[5]; fully differentiated 3T3-L1 cells, 12 days after induction, 50 and 100 μM resveratrol",strong reduction in fat
"NCoR RNAi: pSUPER-NCoR RNAi virus, 5′-GCTGCATCCAAGGGCCATG-3′",reduction of fat accretion by Sirt1 overexpression,[6]; Sirt1-overexpressing 3T3-L1 fibroblasts infected with NCoR RNAi virus,largely prevented
"mSIRT1 RNAi WT: pSUPER vector with RNAi sequence 5′-GATGAAGTTGACCTCCTCA-3′ (SEQ ID NO: 24), interferes with SIRT1 expression",lipolysis level (fatty acid concentration),[7],0.727 mM
same,change of Sirt1 gene expression,[8]; retroviral infection of 3T3-L1 cells,downregulation (sevenfold)
same,PPARγ levels versus control fibroblasts,[9]; Western Blot of extracts from differentiated cells,Higher levels of PPARγ
same,"levels of C/EBPβ, C/EBPδ, C/EBPα, PPARγ and aP2","[9]; semi-quantitative RT-PCR, GAPDH internal control",increased levels of all of the assayed transcription factors except C/EBPβ
same,fat / triglyceride accumulation versus control vector,[6]; Oil red O staining after 7 days of differentiation or intracellular triglyceride content,significant increase in triglyceride accumulation
same,differentiation by Oil Red O staining versus control fibroblasts,[6]; transformed 3T3-L1 fibroblasts,marked increase in differentiation
same,mitotic divisions after induction,[10],occurred normally
same,TG levels versus respective control,[11],higher
"mSIRT1 RNAiMUT: mutation of mSIRT1 RNAiWT, 5′-GATGAAGTCGACCTCCTCA-3′ (SEQ ID NO: 25) (expressed or natural sequence)",SIRT1 expression level versus control fibroblasts,[8],comparable with those of the control fibroblasts
same,SIRT1 expression level versus control fibroblasts,[8]; listed as SIRT1 mRNAi-mut,no effect on SIRT1 expression

# From US20110218229A1, “SIRT1 Modulation of Adipogenesis and Adipose Function” (priority 2003, published 2011)
